# Data taken from publication PMC9231138, “Dihydrotanshinone I Enhances Cell Adhesion and Inhibits Cell Migration in Osteosarcoma U−2 OS Cells through CD44 and Chemokine Signaling” (Molecules, 2022).
# Experiments:
# Format in all cases: cell-based, human
# [1] = test system: CD44; assay: CD44 expression by immunofluorescence; settings: DS−1 2.5, 5.0, and 7.5 µM for 24 h
# Experimental: Figure 7 DS−1 enhanced U−2 OS cells’ adhesion. (A) The morphological changes of U−2 OS cells treated with/without DS−1. Cells were treated with 0 and 7.5 μM DS−1 for 24 h, washed with PBS, and digested with trypsin at 25 °C under a microscope, and photos were taken every 30 s. The percentages of digested cells are recorded in (B). (C) Heatmap of genes related to the adherens’ junction in the control group and DS−1 group. (D) U−2 OS cells were treated with 0 and 7.5 μM DS−1 for 24 h, and the expression of CD44 was observed by immunofluorescence. (E,F) CD44 and GAPDH were analyzed by Western blot and calculated by Image J. (G) The relative expression of 4 kinds of MT-MMPs was analyzed by the transcriptome, as shown in the heatmap. (H) After being treated with DS−1, the relative expression of MT-MMP-1 was verified by RT-PCR. Values are the average of three independent experiments, * p < 0.05, ** p < 0.01, *** p < 0.005.
# Coverslip preparation: we cultured U−2 OS cells on sterile glass coverslips in 24-well plates and then treated them with DS−1 at different concentrations.
# Fixation and staining: We washed the cells with PBS 3 times and fixed the cells with 200 μL 4% paraformaldehyde/PBS solution at 4 °C for 15 min. We then rinsed 3 times with PBS and permeabilized with 200 μL 0.2% TritonX-100 at room temperature for 30 min. […]
# [2] = test system: CD44; assay: Western blot of 80 kDa and 70 kDa CD44; settings: DS−1 2.5, 5.0, and 7.5 µM for 24 h
# Experimental: Sample preparation: U−2 OS cells seeded in 10 cm Petri dishes were collected and washed with ice-cold PBS and RIPA lysis buffer with PMAF; phosphatase inhibitor was added, and the tubes were placed on ice for 30 min and vortexed for 30 s at intervals of 10 min. The samples were centrifuged at 12,000 g at 4 °C for 15 min, and the supernatants were collected in new centrifuge tubes. The protein samples were placed on ice, and the concentration of each protein sample was measured by the BCA kit (Thermo). The protein concentration was adjusted to the same by milli Q ultrapure water.
# Loading and running the gel: Equal amounts of protein were loaded into the wells of the 10% SDS-PAGE gel, along with molecular weight markers, and 15 μg of total protein from the cell lysate was loaded. We then ran the gel for 45 min at 200 V.
# Transferring the protein: We prepared the transfer stack as follows: negative plate, sponge, filter paper, gel, PVDF membrane, filter paper, sponge, and positive plate. The transfer was for 90 min at 200 mA.
# (§1) Antibody staining: We blocked the membrane for 1 h at room temperature using 5% blocking solution, then incubated the membrane with appropriate dilutions of the primary antibody in the blocking solution overnight at 4 °C. […] Images were acquired using darkroom development techniques for chemiluminescence and analyzed by Image J.
# [3] = test system: phospho−FOXO1; assay: Western blot phospho−FOXO1
# Experimental: Figure 3 DS−1 inhibited the expression of transcription factor FOXO1 in U−2 OS cells. (A) U−2 OS cells were treated with DS−1 at 0, 3.125, 6.25, and 12.5 μM, and the changes in FOXO1 were analyzed by immunofluorescent staining, followed by confocal microscopy imaging. (B) U−2OS cells were treated with DS−1 at 0, 3.125, 6.25, and 12.5 μM, and FOXO1 and pFOXO1 were analyzed by Western blot; the changes were presented in histograms (C,D). (E) U−2 OS cells were treated with DS−1 at 6.25 μM for 0, 12, 24, and 48 h, then FOXO1 was analyzed by Western blot, and the changes are presented in the histogram (F). (G) The pFOXO1/FOXO1 value is shown in the histogram. […]
# Sample preparation: U−2 OS cells seeded in 10 cm Petri dishes were collected and washed with ice-cold PBS and RIPA lysis buffer with PMAF; phosphatase inhibitor was added, and the tubes were placed on ice for 30 min and vortexed for 30 s at intervals of 10 min. […] The protein samples were placed on ice, and the concentration of each protein sample was measured by the BCA kit (Thermo). […]
# as §1
# [4] = test system: HeLa cells; assay: Cell adhesion against trypsin digestion, HeLa cells; settings: DS-1 10.0, 15.0, 20.0 μM for 24 h
# Excerpt: Dihydrotanshinone I enhances cell adhesion and inhibits cell migration in osteosarcoma U-2 OS cell through CD44
# Lanyan Fan1, 2, Chen Peng2, Xiaoping Zhu1, 2, Yawen Liang2, Ti anyi Xu2, Peng Xu1 and Shihua Wu1, 2* 1 Joint Research Centre for Engineering Biology, Zhejiang University-University of Edinburgh Institute, Zhejiang University, Haining 314400, China
# 2 Research Center of Siyuan Natural Pharmacy and Biotoxicology, College of Life Sciences, Zhejiang University, Hangzhou, Zhejiang Province 310058, China
# * Correspondence: Drwushihua@zju.edu.cn, Shihuawu@intl.zju.edu.cn; Tel.: +86-13968131541 Legends for Supplementary figures
# Figure S1. The chemical structures of major tanshinones isolated from Salvia miltiorrhiza rhizome.
# Figure S2. The effects of DS-1 on HeLa cell adhesion on cell culture plates against trypsin digestion. (A) Hela cells were seeded at 80000 per well in 6-well plates for 12 h, then treated with 0, 10.0, 15.0, 20.0 μM DS-1 for 24 h.
# After that, cells were washed by PBS solution and digested by 400 μL 0.25% trypsin. During the digestion, cellular morphology was recorded by inverted microscope with camera every 30 seconds. The digestion time […]
# Figure S3. […]
# cellular morphology was recorded by inverted microscope every 30 seconds. […]
# Figure S4. […] The relative expression of CD44 was detected by Western Blot and […]
smiles,measurement,setting,value
"Cc1cccc2c3c(ccc12)C1=C(C(=O)C3=O)[C@@H](C)CO1 [DS−1, 15,16-Dihydrotanshinone I]",CD44 expression,[1],significantly increased
same,70 kDa CD44 protein,[2],decreased
same,80 kDa CD44 protein,[2],significantly increased
same,phosphorylation of FOXO1 (pFOXO1/FOXO1 value),"[3]; with increasing concentration of DS−1, Image J",increased
same,phospho−FOXO1,"[3]; with the concentration of DS−1 (3.125, 6.25, 12.5 μM) and the time of treatment (6.25 μM, 12, 24, 48 h)",reduced
same,cell adhesion against trypsin digestion on cell culture plates,[4],not significant
